Reference: patent US20240101600A1, “FIBROBLAST GROWTH FACTOR RECEPTOR (FGFR)-TARGETING ANTAGONISTIC SHORT PEPTIDE” (WENZHOU MEDICAL UNIVERSITY, priority 2019, published 2024)
Where no end group is shown, it is not given here.

Key:
[1] = target: FGFR1 (Mus musculus, UniProt P16092); experiment: Western blot of FGFR1 signaling pathway in melanoma B16-F10; type: cell-based; set-up: endogenous in cells; settings: bFGF stimulation
Procedure: (§1) Cervical cancer cells Hela229, melanoma B16-F10, lung cancer cells NCI-H460, gastric cancer cells SGC-7901 and MGC-803 were inoculated into 6-well plates, respectively. After growing adherently overnight, the cells were pretreated with P48 for 10 min or with AZD4547/SSR for 2 h, and incubated with bFGF for 15 min or with KGF for 20 min.

[2] = target: FGFR1 (Homo sapiens, UniProt P11362); experiment: Western blot of FGFR1 signaling pathway in lung cancer cells NCI-H460; type: cell-based; set-up: endogenous in cells; host or cells: Hela229; NCI-H460; SGC-7901; MGC-803; settings: bFGF stimulation
Chain of FGFR1 (Homo sapiens, UniProt P11362) (P11362 22-822): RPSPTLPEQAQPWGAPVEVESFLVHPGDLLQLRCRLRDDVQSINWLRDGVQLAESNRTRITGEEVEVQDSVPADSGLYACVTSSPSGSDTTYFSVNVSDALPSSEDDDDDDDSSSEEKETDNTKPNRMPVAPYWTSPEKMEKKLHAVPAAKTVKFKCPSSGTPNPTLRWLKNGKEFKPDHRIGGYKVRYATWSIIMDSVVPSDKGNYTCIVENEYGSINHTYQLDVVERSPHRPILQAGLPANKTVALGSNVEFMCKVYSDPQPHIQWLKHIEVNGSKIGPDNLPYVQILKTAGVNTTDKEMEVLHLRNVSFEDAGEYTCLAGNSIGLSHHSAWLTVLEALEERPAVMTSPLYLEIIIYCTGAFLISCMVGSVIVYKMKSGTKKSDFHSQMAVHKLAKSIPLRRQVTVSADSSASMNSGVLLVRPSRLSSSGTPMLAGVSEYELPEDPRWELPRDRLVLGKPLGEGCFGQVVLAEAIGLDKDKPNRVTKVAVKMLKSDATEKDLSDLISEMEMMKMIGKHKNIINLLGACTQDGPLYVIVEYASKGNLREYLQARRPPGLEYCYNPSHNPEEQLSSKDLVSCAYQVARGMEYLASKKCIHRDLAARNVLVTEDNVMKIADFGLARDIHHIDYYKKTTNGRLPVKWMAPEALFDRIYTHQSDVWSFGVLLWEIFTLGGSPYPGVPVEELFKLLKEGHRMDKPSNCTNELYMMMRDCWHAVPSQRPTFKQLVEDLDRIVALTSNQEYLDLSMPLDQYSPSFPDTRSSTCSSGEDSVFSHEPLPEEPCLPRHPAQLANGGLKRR
Procedure: as §1

[3] = target: T1, EGFR (Homo sapiens, UniProt P00533, DEL746-750); experiment: Western blot of EGFR and ERK1/2 in PC-9 cells under EGF stimulation; type: cell-based; settings: EGF 10 min
T1 construct: endogenous in cells; host or cells: PC-9

[4] = target: T2, FGFR1C (Homo sapiens, UniProt P11362); experiment: SPR detection of interaction with FGFR1C; type: binding
T2 sequence (P11362 22-376 limits assumed): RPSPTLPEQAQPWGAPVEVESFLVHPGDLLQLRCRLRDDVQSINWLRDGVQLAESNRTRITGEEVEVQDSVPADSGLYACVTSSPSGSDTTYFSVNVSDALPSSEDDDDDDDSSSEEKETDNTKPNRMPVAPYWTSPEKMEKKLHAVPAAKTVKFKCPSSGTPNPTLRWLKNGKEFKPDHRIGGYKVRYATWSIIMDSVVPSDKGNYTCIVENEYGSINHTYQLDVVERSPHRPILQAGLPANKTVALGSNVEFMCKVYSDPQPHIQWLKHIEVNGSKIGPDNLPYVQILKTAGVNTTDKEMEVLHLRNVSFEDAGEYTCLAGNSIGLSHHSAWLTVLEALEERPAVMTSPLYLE
Procedure: Amino acid sequence of P9 degraded short peptide P48 was analyzed using Amber11 program. An initial structure of the P9 and P48 peptide chains was constructed using a sequence command in a Tleap module of the Amber11 program. Hydrogen atoms were added using the Tleap module of the Amber11 program, a […] TIP3P solvent box was added at a distance of 10 Å from the peptide chain, and counter ions were added to the two systems to keep the system electrically neutral. The system was subjected to 20-ns NPT system simulation to obtain an optimal spatial structure. […] The last 1 ns of trajectory obtained by molecular dynamics simulation of the system was selected to calculate the binding free energy, the molecules of the solvent of water and counter ion were deleted, and conformation was recorded every 10 ps to obtain a total of 101 structures. The binding free energy between FGF2 and FGFR1 were calculated by a molecular mechanics-generalized born surface area (MM-GBSA) method. The binding free energy and energy decomposition of amino acid residues were calculated using an MMPBA.py script provided by the Amber11. […] After bFGF and FGFR1 flew into the sensor chip, P48 (50 μM, 100 μM, 200 μM, 300 μM and 400 μM) was injected into a sensor surface, and the obtained data was analyzed using BIAevaluation software. […]

[5] = tested on: gastric cancer cells SGC-7901; experiment: SGC-7901 transplanted tumor model in BALB/c nude mice; type: in vivo; settings: intraperitoneal, 32 and 64 mg/kg·d
Procedure: SGC-7901 cells were injected subcutaneously into the back of BALB/c nude mice. After 10 days, the mice were randomly divided into 4 groups, each with 12 mice, and were administered intraperitoneally. An administration group included a model group (normal saline group), an AZD4547 group (20 mg/kg·d), and a P48 group (32 mg/kg·d, 64 mg/kg·d). The length and width of the tumor were measured using a vernier caliper. The tumor volume was calculated using a formula V=0.52×L×W^2. The weights of the mice were recorded every 3 days, and the tumor size was recorded […]. After 28 days, the nude mice were sacrificed for dissection, and tissue samples were taken out for further study. The results are shown in FIG. 6, wherein A represents the weight change of the mice, B represents the volume and size of the tumor, C represents the expression of phosphorylated FLG, FRS2α and ERK1/2 in vivo after P48 treatment, and D represents the expression of Ki67 in vivo after P48 treatment.

Chain of FGFR1 (Mus musculus, UniProt P16092) (P16092 22-822): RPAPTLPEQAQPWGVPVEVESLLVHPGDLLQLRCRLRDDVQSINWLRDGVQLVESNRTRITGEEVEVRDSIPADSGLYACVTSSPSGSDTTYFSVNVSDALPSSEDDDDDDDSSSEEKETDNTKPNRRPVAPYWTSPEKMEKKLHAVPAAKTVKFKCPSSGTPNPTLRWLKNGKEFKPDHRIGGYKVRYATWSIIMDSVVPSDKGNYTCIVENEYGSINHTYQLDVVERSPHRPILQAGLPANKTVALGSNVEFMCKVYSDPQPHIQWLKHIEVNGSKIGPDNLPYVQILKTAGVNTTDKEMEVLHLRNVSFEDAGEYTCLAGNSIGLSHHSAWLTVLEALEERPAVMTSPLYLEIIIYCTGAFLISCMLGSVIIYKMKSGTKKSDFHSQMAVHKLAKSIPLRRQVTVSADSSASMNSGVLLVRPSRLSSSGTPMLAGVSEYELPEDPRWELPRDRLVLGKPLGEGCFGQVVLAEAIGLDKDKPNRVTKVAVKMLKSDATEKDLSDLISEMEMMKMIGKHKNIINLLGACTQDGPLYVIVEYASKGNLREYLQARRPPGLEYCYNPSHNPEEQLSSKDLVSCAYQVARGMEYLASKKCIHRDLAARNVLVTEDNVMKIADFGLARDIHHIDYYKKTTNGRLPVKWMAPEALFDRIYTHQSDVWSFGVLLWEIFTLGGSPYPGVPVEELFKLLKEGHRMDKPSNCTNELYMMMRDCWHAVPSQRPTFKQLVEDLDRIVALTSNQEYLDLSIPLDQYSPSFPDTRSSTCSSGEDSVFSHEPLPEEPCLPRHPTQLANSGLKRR

SPPRYPGGGS-NH2 [P48, Ser-Pro-Pro-Arg-Tyr-Pro-Gly-Gly-Gly-Ser-NH2]
inhibition of FGFR1 signaling pathway [1]: can inhibit the FGFR1 signaling pathway of cervical cancer, melanoma, lung cancer and gastric cancer in a concentration-dependent manner | inhibition of FGFR1 signaling pathway [2]: can inhibit the FGFR1 signaling pathway of cervical cancer, melanoma, lung cancer and gastric cancer in a concentration-dependent manner | effect on EGF stimulation (phosphorylated EGFR and ERK1/2) [3]: has no effect | binding to FGFR1C [4]: can be bound | rank of binding degree among FGFRs [4]: FGFR1C has the strongest binding degree | inhibition of FGFR1 signaling pathways in tumors (phosphorylated FLG, FRS2a, ERK1/2) ([5]; 28 days): desirable inhibitory effect | inhibition of tumor growth ([5]; 28 days): can significantly inhibit the growth of gastric cancer cells SGC-7901 | inhibition of Ki67 expression (immunohistochemistry) ([5]; compared with control group): can inhibit the expression of Ki67 in a concentration-dependent manner
